Here are results for 13 compounds from patent US7858653B2, “2-imidazoles” (Hoffman-La Roche Inc., priority 2006, dated 2010).

This assay concerns the target T1, mouse TAAR1 (Mus musculus, UniProt Q923Y8).
T1 construct: expressed in transfected cells; host or cells: HEK293 cells (ATCC # CRL-1573), stably transfected with pIRESneo2 expression plasmid; membranes prepared
Description: Radioligand binding assay on membranes of HEK293 cells stably expressing TAAR1. The note with it: for Ki: mouse TAAR1, radioligand [3H]-rac-2-(1,2,3,4-tetrahydro-1-naphthyl)-2-imidazoline at 60 nM, 4° C., 30 minutes. The method, then: Construction of TAAR Expression Plasmids and Stably Transfected Cell Lines
For the construction of expression plasmids the coding sequences of human, rat and mouse TAAR1 were amplified from genomic DNA essentially as described by Lindemann et al. (2005) genomics 85, 372-385. The Expand High Fidelity PCR System (Roche Diagnostics) was used with 1.5 mM Mg^2+ and purified PCR products were cloned into pCR2.1-TOPO cloning vector (Invitrogen) following the instructions of the manufacturer. PCR products were subcloned into the pIRESneo2 vector (BD Clontech, Palo Alto, Calif.), and expression vectors were sequence verified before introduction in cell lines.
HEK293 cells (ATCC # CRL-1573) were cultured essentially as described Lindemann et al. (2005) genomics 85, 372-385. For the generation of stably transfected cell lines HEK293 cells were transfected with the pIRESneo2 expression plasmids containing the TAAR coding sequences (described above) with Lipofectamine 2000 (Invitrogen) according to the instructions of the manufacturer, and 24 hours post transfection the culture medium was supplemented with 1 mg/ml G418 (Sigma, Buchs, Switzerland). After a culture period of about 10 d clones were isolated, expanded and tested for responsiveness to trace amines (all compounds purchased from Sigma) with the cAMP Biotrak Enzyme immunoassay (EIA) System (Amersham) following the non-acetylation EIA procedure provided by the manufacturer.
Membrane Preparation and Radioligand Binding
Cells at confluence were rinsed with ice-cold phosphate buffered saline without Ca^2+ and Mg^2+ containing 10 mM EDTA and pelleted by centrifugation at 1000 rpm for 5 minutes at 4° C. The pellet was then washed twice with ice-cold phosphate buffered saline and the cell pellet was frozen immediately by immersion in liquid nitrogen and stored until use at −80° C. The cell pellet was then suspended in 20 ml HEPES-NaOH (20 mM), pH 7.4 containing 10 mM EDTA, and homogenized with a Polytron (PT 3000, Kinematica) at 10,000 rpm for 10 seconds. The homogenate was centrifuged at 48,000×g for 30 minutes at 4° C. and the pellet resuspended in 20 ml HEPES-NaOH (20 mM), pH 7.4 containing 0.1 mM EDTA (buffer A), and homogenized with a Polytron at 10,000 rpm for 10 seconds. The homogenate was then centrifuged at 48,000×g for 30 minutes at 4° C. and the pellet resuspended in 20 ml buffer A, and homogenized with a Polytron at 10,000 rpm for 10 seconds. Protein concentration was determined by the method of Pierce (Rockford, Ill.). The homogenate was then centrifuged at 48,000×g for 10 minutes at 4° C., resuspended in HEPES-NaOH (20 mM), pH 7.0 including MgCl2 (10 mM) and CaCl2 ([…]) (buffer B) at 200 μg protein per ml and homogenized with a Polytron at 10,000 rpm for 10 seconds.
Binding assay was performed at 4° C. in a final volume of 1 ml, and with an incubation time of 30 minutes. The radioligand [^3H]-rac-2-(1,2,3,4-tetrahydro-1-naphthyl)-2-imidazoline was used at a concentration equal to the calculated Kd value of 60 nM to give a total binding at around 0.1% of the total added radioligand concentration, and a specific binding which represented approximately 70-80% of the total binding. Non-specific binding was defined as the amount of [^3H]-rac-2-(1,2,3,4-tetrahydro-1-naphthyl)-2-imidazoline bound in the presence of the appropriate unlabelled ligand (10 μM). Competing ligands were tested in a wide range of concentrations (10 pM-30 μM). […] Each experiment was performed in duplicate. All incubations were terminated by rapid filtration through UniFilter-96 plates (Packard Instrument Company) and glass filter GF/C, pre-soaked for at least 2 hours in polyethylenimine 0.3%, and using a Filtermate 96 Cell Harvester (Packard Instrument Company). […]

T1 sequence (Q923Y8 whole entry): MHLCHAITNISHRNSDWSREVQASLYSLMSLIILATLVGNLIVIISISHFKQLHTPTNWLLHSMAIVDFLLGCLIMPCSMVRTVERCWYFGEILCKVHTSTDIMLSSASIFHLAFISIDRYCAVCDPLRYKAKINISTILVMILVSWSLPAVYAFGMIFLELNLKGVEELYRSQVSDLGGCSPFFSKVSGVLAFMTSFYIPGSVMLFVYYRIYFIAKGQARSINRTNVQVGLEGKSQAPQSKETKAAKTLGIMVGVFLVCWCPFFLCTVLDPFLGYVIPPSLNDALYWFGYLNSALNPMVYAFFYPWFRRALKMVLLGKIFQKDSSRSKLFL

One may read the Ki as a dissociation constant, usually derived from enzyme kinetics or from competition with a known ligand. Low readings indicate a stronger hold on the target, high ones a looser hold on the target. In the case of `Clc1cccc(CNc2ncc[nH]2)c1` [Example 6, (3-Chloro-benzyl)-(1H-imidazol-2-yl)-amine], the Ki came out at 0.86 µM.

In turn, `c1ccc2cc(CNc3ncc[nH]3)ccc2c1` [Example 24, (1H-Imidazol-2-yl)-naphthalen-2-ylmethyl-amine] yielded a Ki of 0.67 µM.

In the case of `Cc1ccccc1C(C)Nc1ncc[nH]1` (racemic) [Example 21, (R,S)-(1H-Imidazol-2-yl)-(1-o-tolyl-ethyl)-amine], the Ki is 0.81 µM.

On to `CC(Nc1ncc[nH]1)c1ccccc1` (racemic) [Example 9, (R,S)-(1H-Imidazol-2-yl)-(1-phenyl-ethyl)-amine], for which the inhibition constant Ki is 0.46 µM.

Compound `Clc1ccc(CNc2ncc[nH]2)cc1Cl` [Example 7, (3,4-Dichloro-benzyl)-(1H-imidazol-2-yl)-amine] displayed a Ki of 0.47 µM.

Broadly, the Kd is the constant that tells how readily two partners part at equilibrium. Consider `c1ccc2c(c1)CCCC2C1=NCCN1` (racemic) [[^3H]-rac-2-(1,2,3,4-tetrahydro-1-naphthyl)-2-imidazoline, reference compound], for which the Kd (TAAR1 membrane binding, species not given, read-out: calculated Kd value of the radioligand) is 60 nM.

In turn, `Cc1cccc(CNc2ncc[nH]2)c1` [Example 11, (1H-Imidazol-2-yl)-(3-methyl-benzyl)-amine] registered a Ki of 0.94 µM.

As to `CC(Nc1ncc[nH]1)c1cccc(Cl)c1Cl` (racemic) [Example 22, (R,S)-[1-(2,3-Dichloro-phenyl)-ethyl]-(1H-imidazol-2-yl)-amine], affinity was put at a Ki of 0.076 µM.

As to `Clc1cccc(CNc2ncc[nH]2)c1Cl` [Example 8, (2,3-Dichloro-benzyl)-(1H-imidazol-2-yl)-amine], the Ki stood at 0.18 µM.

As for `CC(Nc1ncc[nH]1)c1ccccc1Cl` (racemic) [Example 29, (RS)-[1-(2-Chloro-phenyl)-ethyl]-(1H-imidazol-2-yl)-amine], the Ki turned out to be 0.24 µM.

Regarding `Fc1cccc(CNc2ncc[nH]2)c1` [Example 16, (3-Fluoro-benzyl)-(1H-imidazol-2-yl)-amine], the affinity corresponds to a Ki of 0.98 µM.

As for `Clc1cccc(SCc2ncc[nH]2)c1Cl` [Example 3, 2-(2,3-Dichloro-phenylsulfanylmethyl)-1H-imidazole], the Ki was 0.14 µM.

On to `COC(Cc1ncc[nH]1)c1cccc(Cl)c1` (stereo not shown) [Example 1, 2-[2-(3-Chloro-phenyl)-2-methoxy-ethyl]-1H-imidazole], for which the affinity, expressed as Ki, was 0.78 µM.
